Source: patent publication US7371776B2, “Methods and compositions for treating cancer” (Mars, Incorporated, priority 2004, dated 2008)

Assays:
Type in all cases: cell-based, human
Cdc2 (Tyr15) = experiment: LPS multi-well plate phosphorylation screen in MDA MB-231 cells; details: 100 μg/mL, densitometry vs control
Excerpt: (§1) Layered Protein Scanning (LPS) is a method for screening liquid protein samples in a high throughput manner using multi-well plates [Englert, C. R. et al., Cancer Res., 60: 1526-1530, 2000], and conducted by 20/20 Gene Systems, Inc., (Rockville, Md.). In short, cells are lysed and protein extract loaded into the wells of vacuum manifold and transferred through a stack of membranes. From each set of samples, up to five dot blot membranes are generated.
(§2) MDA MB-231 human breast cancer cells were treated, with or without 100 μg/mL pentamer, for 48 and 72 hours. Cells were lysed in LPS/MWP lysis buffer (20/20 Gene Systems, Inc.). Protein concentration was determined using BCA Protein Assay Kit (Pierce, Rockford, Ill.). Ten and 20 μg of each protein sample was loaded in duplicate onto Bio-Dot Microfiltration Apparatus (BioRad, Philadelphia, Pa.) and transferred through a 5-membrane stack as recommended by the manufacturer (20/20 Gene Systems). After the transfer, all of the membranes were biotinylated in 1 mg/mL EZ-Link Sulfo-NHS-Biotin solution in 1×PBS for 10 minutes at room temperature (Pierce).
(§3) Membranes were incubated overnight at 4° C. with the antibodies shown in Table 1 (1:500 or 1:1000 dilution). The following day, membranes were washed in Tris-buffered saline with Tween 20 (0.1%) (TBST buffer) and incubated for 60 minutes at room temperature in a mixture of FluoroLink Cy 5-labeled Streptavidin (1:500, Amersham) and Fluorescein-labeled secondary anti-mouse or anti-rabbit antibody (1:2,000, Molecular Probes, Eugene, Oreg.), followed by washes in TBST. Membranes were dried and scanned on a Typhoon scanner (Amersham), and obtained images were analyzed with InageQuant software (Amersham). Data were plotted in Excel and statistically analyzed in JMP (SAS Institute, Inc., Cary, N.C.). Hierarchical clustering analysis was performed to evaluate segregation of samples into control and treated groups.

FKHR (Ser256) = experiment: as above; details: 100 μg/mL, 72 hours, densitometry vs control
Excerpt: as §1, §2, §3

PKC-δ at Ser643 = experiment: as above; details: 100 μg/mL
Excerpt: as §1, §2, §3

PKC-θ at Ser 643/676 = experiment: as above; details: 100 μg/mL, 72 hrs
Excerpt: as §1, §2, §3

[1] = system: SAPK/JNK at Thr183/Tyr185; experiment: as above; details: 100 μg/mL
Excerpt: as §1, §2, §3

Stat 5 at Tyr 694 = experiment: as above; details: 100 μg/mL
Excerpt: as §1, §2, §3

p53 [2] = experiment: as above; details: 100 μg/mL
Excerpt: as §1, §2, §3

[3] = system: pRb at Ser 795 and Ser807/811; experiment: as above; details: 100 μg/mL
Excerpt: as §1, §2, §3

p53 [4] = experiment: High resolution profiling (P-FILM) of p53 in MDA MB-468 cells; details: 100 μg/mL
Protocol: Both p53 and pRb contain multiple phosphorylation sites, and evaluating each site separately provides a more accurate indication of each protein's potential function. Therefore, a high resolution functional profiling of the proteins was performed using P-FILM technology (20/20 Gene Systems, Inc.).
The same protein samples as those used for PDVF membrane blotting were used. Ten μg of each protein sample of MDA MB-231 cells, and in some cases MDA MB-468 and MCF-7 cells, treated with 100 μg /mL of pentamer or DMSO-treated controls, were separated by PAGE on 4-20% gradient gels (BioRad). Proteins were transferred on a stack of ten membranes, according to manufacturer's instructions (20/20 Gene Systems, Inc.). The membranes were probed with antibodies recognizing total and phosphorylated p53 (p53Ser6, Ser9, Ser15, Ser20, Ser37, Ser46 and Ser392) at 1:1000 dilution as recommended by the manufacturer (Cell Signaling). The secondary antibody used in all cases was anti-rabbit polyclonal 1:2000 (Amersham). Signals were visualized on BIOMAX MR film (Kodak). The profiling of pRb was done using anti-phospho pRb (Ser780, Ser 795 and Ser 807/811) and anti-pRb polyclonal antibody (Cell Signaling) at a 1:1000 dilution. The secondary antibody used in all cases was anti-rabbit at 1:2000 dilution (Amersham). Image analysis was performed with Kodak 1D image analysis software. Background corrected intensity values were normalized for loading by using GAPDH intensities. Numerical analysis was performed in Excel.

Compound: Oc1cc(O)c2c(c1)O[C@H](c1ccc(O)c(O)c1)[C@H](O)[C@H]2c1c(O)cc(O)c2c1O[C@H](c1ccc(O)c(O)c1)[C@H](O)[C@H]2c1c(O)cc(O)c2c1O[C@H](c1ccc(O)c(O)c1)[C@H](O)[C@H]2c1c(O)cc(O)c2c1O[C@H](c1ccc(O)c(O)c1)[C@H](O)[C@H]2c1c(O)cc(O)c2c1O[C@H](c1ccc(O)c(O)c1)[C@H](O)C2 [pentamer, pentameric procyanidin]
- phosphorylation of Cdc2 (Tyr15) decreased (Cdc2 (Tyr15); 48 hrs): 31%
- phosphorylation of Cdc2 (Tyr15) decreased (Cdc2 (Tyr15); 72 hrs): 45%
- phosphorylation of FKHR (Ser256) decreased (FKHR (Ser256)): 63%
- phosphorylation of PKC-δ at Ser643 decreased (PKC-δ at Ser643; 48 hrs): 22%
- phosphorylation of PKC-δ at Ser643 decreased (PKC-δ at Ser643; 72 hrs): 49%
- phosphorylation of PKC-θ at Ser 643/676 decreased (PKC-θ at Ser 643/676): 49%
- phosphorylation of SAPK/JNK at Thr183/Tyr185 decreased ([1]; 48 hrs): 34%
- phosphorylation of SAPK/JNK at Thr183/Tyr185 decreased ([1]; 72 hrs): 26%
- Stat 5 phosphorylation at Tyr 694 decreased (Stat 5 at Tyr 694; 48 hrs): 28%
- Stat 5 phosphorylation at Tyr 694 decreased (Stat 5 at Tyr 694; 72 hrs): 33%
- phosphorylation of p53 residues Ser6, Ser9, Ser20 and Ser15 (p53 [2]; LPS): not significantly affected
- phosphorylation of p53 (antibody mix at Ser37, 46 and 392) decreased (p53 [2]; post treatment, densitometry vs control): 36%
- phosphorylation of pRb at Ser 795 and Ser807/811 decreased ([3]; 48 hrs): 36%
- phosphorylation of pRb at Ser 795 and Ser807/811 decreased ([3]; 72 hrs): 40%
- percentage of p53 phosphorylated at Ser392 decreased, compared to untreated controls (p53 [4]; MD MB-468): 33%
- expression of endogenous p53 (p53 [4]; MDA MB-468): not significantly affected
- phosphorylation of p53 Ser15 and Ser46 (p53 [4]; MDA MB-468): not significantly affected
